The source of these data is patent US12441726B2, “Compounds and uses thereof” (Foghorn Therapeutics Inc., priority 2020, dated 2025).

One may read the IC50 as the concentration needed to halve the response being measured. Low values mean greater potency, high ones weaker potency.

One assay deals with BRM (Homo sapiens, UniProt P51531). The experiment in a line: ATPase catalytic activity assay (ADP-Glo), BRM. The following applies: 30 nM BRM, 400 μM ATP; for IC50: BRM ATPase: IC50 (uM). A general note: ADP-Glo turns the ADP formed in a reaction into a luminescent signal.
Another assay deals with BRG-1 (Homo sapiens, UniProt P51532). The experiment in a line: ATPase catalytic activity assay (ADP-Glo), BRG-1. The following applies: for Emax: 1 h, read-out: BRG1 Max % Inhibition, ADP-Glo, 30 nM BRG-1, 400 μM ATP.
Chain of BRG-1 (P51532 whole entry): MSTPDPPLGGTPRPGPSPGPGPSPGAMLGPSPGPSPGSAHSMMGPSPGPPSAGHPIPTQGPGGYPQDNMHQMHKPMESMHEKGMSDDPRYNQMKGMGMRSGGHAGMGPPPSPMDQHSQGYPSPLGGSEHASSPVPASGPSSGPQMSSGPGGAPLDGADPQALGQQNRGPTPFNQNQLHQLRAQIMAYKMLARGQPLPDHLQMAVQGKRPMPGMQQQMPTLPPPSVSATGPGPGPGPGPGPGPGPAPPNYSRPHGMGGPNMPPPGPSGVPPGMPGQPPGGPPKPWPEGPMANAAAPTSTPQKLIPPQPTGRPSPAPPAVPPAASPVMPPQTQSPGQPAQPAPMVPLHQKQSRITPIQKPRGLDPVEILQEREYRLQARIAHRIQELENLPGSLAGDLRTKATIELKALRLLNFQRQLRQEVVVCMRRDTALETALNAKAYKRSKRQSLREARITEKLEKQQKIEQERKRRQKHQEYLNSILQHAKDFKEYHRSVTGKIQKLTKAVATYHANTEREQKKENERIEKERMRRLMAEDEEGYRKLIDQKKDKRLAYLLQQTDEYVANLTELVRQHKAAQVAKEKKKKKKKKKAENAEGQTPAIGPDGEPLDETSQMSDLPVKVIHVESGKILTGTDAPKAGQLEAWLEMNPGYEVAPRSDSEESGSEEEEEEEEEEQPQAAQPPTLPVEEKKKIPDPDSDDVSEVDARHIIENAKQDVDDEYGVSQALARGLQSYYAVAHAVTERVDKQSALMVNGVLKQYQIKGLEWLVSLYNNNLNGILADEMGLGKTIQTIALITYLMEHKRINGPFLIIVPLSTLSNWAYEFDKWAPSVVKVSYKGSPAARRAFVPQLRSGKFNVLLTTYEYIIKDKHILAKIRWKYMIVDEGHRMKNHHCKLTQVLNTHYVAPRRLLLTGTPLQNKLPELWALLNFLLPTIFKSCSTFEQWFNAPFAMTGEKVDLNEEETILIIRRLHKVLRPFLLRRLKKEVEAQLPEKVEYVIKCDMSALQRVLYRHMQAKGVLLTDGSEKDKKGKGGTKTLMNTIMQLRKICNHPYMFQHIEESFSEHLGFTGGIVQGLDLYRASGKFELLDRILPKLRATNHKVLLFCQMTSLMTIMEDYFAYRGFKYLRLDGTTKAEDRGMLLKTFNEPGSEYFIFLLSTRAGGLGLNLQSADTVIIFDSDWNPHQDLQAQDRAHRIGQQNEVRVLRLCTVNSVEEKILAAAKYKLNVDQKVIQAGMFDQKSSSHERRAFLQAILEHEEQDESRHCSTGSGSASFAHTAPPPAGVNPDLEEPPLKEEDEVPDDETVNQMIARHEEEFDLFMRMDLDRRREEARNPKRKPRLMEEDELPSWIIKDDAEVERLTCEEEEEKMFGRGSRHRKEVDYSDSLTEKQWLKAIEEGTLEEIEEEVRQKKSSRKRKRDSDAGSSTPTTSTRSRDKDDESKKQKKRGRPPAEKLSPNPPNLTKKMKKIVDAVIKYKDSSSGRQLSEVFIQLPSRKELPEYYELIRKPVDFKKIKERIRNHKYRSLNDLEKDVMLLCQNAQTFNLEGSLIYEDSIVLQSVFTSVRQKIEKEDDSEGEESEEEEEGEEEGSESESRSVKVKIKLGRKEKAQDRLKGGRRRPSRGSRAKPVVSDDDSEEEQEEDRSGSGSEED

Chain of BRM (P51531 whole entry): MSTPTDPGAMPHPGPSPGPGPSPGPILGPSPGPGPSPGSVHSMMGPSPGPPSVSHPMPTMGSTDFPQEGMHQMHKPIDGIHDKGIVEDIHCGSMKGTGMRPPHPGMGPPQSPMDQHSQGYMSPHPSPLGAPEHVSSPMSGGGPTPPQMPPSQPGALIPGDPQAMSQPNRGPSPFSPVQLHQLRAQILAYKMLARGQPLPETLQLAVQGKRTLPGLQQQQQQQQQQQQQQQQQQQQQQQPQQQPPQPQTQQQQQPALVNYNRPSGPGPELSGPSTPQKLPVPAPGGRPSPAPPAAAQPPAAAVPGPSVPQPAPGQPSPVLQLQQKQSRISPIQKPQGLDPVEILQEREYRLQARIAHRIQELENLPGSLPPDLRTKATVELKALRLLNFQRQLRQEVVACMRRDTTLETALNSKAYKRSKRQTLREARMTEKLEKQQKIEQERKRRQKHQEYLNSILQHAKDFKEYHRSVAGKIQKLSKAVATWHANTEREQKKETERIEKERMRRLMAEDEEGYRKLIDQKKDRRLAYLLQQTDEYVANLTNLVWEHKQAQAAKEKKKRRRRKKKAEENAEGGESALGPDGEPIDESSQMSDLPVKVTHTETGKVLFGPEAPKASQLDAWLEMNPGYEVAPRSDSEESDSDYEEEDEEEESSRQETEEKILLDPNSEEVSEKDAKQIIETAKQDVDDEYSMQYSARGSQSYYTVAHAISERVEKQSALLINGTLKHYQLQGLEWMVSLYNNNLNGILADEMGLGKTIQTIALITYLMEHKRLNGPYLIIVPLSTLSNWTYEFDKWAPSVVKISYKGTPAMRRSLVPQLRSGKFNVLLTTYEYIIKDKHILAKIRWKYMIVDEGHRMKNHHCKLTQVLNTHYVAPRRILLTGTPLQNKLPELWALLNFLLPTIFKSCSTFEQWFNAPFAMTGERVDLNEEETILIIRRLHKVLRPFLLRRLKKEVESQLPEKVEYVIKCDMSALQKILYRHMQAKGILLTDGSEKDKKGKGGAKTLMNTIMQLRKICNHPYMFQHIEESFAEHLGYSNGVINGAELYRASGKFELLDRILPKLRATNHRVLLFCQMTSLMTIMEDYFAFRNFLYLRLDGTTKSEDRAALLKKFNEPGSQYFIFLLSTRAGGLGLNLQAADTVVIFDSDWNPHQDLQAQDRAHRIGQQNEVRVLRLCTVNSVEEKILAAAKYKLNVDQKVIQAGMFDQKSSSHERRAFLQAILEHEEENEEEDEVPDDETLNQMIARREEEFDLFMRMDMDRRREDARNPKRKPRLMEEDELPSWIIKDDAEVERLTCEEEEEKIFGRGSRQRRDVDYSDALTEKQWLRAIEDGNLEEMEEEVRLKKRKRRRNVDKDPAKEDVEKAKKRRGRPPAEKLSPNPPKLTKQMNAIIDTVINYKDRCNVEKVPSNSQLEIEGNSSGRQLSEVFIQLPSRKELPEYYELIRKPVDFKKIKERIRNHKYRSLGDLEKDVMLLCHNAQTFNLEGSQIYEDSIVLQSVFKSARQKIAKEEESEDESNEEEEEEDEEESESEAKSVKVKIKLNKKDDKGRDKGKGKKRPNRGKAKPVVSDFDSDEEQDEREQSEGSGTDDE

Consider `C[C@@]1(C#N)COCc2ccc(C(=O)NCc3cc4nc(-c5ccnc(N6C[C@@H]7C[C@H]6CO7)n5)ccc4cn3)cc21` [Compound 340], for which, at BRM, the “BRM Max % Inhibition” value amounted to 99% and the 50% inhibitory concentration (IC50) is below 0.1 µM. Besides, on BRG-1, the 50% inhibitory concentration (IC50) was in the range of 100 to 500 nM and the Emax was 91%.
The corresponding values for `C[C@@]1(C#N)COCc2ccc(C(=O)NCc3cc4nc(-c5ccnc(N6CC[C@H](F)C6)n5)ccc4cn3)cc21` [Compound 341] are 100%, below 0.1 µM, 100 to 500 nM and 93%.
For `C[C@@]1(C#N)COCc2ccc(C(=O)NCc3cc4cc(-c5cncc(C6CC6)n5)cnc4cn3)cc21` [Compound 342] the same measures were 97%, below 0.1 µM, 500 to 1000 nM and 80%.
The corresponding values for `COc1nn(C)cc1-c1ccc2cnc(CNC(=O)c3ccc4c(c3)[C@](C)(F)COC4)cc2n1` [Compound 343] are 101%, below 0.1 µM, 500 to 1000 nM and 78%.
As to `COc1cncc(-c2nc3cc(CNC(=O)c4ccc5c(c4)[C@](C)(C#N)COC5)ncc3s2)n1` [Compound 344], on BRM, the “BRM Max % Inhibition” value was found to be 94% and the IC50 was 0.1 to 0.5 µM. At BRG-1, the IC50 was 500 to 1000 nM and the Emax stood at 57%.
The corresponding values for `COC(=O)N1CCC=C(c2ccc3cnc(CNC(=O)c4ccc5c(c4)[C@](C)(F)COC5)cc3n2)C1` [Compound 345] are 81%, 0.1 to 0.5 µM, above 1000 nM and 25%.
The corresponding values for `Cn1ccc2ncc(-c3ccc4cnc(CNC(=O)c5ccc6c(c5)[C@](C)(C#N)COC6)cc4n3)nc21` [Compound 346] are 102%, below 0.1 µM, below 100 nM and 94%.
In the case of `C[C@@]1(F)COCc2ccc(C(=O)NCc3cc4cc(-c5cccc(N6CCC6)n5)cnc4cn3)cc21` [Compound 347], at BRM, the “BRM Max % Inhibition” value was found to be 100% and the IC50 is below 0.1 µM. On BRG-1, the half-maximal inhibitory concentration (IC50) lay in the range of 100 to 500 nM and the Emax is 79%.
Turning to `C[C@@]1(C#N)COCc2ccc(C(=O)NCc3cc4nc(-c5ccnc(N6CCC6)n5)sc4cn3)cc21` [Compound 348], at BRM, the “BRM Max % Inhibition” value turned out to be 99% and the IC50 was below 0.1 µM. Further, on BRG-1, the IC50 is 500 to 1000 nM and the Emax is 72%.
For the compound `COc1cncc(-c2ccc3nnc(CNC(=O)c4ccc5c(c4)[C@](C)(C#N)COC5)cc3c2)n1` [Compound 349], at BRM, the “BRM Max % Inhibition” value is 100% and the IC50 is below 0.1 µM. On BRG-1, the IC50 was in the range of 100 to 500 nM and the Emax was 87%.
For `C[C@@]1(C#N)COCc2ccc(C(=O)NCc3cc4nc(N5CCCN(C6CCC6)C5=O)ccc4cn3)cc21` [Compound 350] the same measures were 96%, 0.1 to 0.5 µM, above 1000 nM and 54%.
The corresponding values for `C[C@@]1(C#N)COCc2ccc(C(=O)NCc3cc4cc(-c5cccc(N6CCC6)n5)ccc4nn3)cc21` [Compound 351] are 101%, below 0.1 µM, 100 to 500 nM and 95%.
For `O=C(NCc1cc2nc(-c3cncc(N4CCC4)n3)ccc2cn1)c1cc(F)c2c(c1)[C@@](F)(C(F)F)COC2` [Compound 352] the same measures were 99%, below 0.1 µM, 100 to 500 nM and 89%.
Turning to `C[C@@]1(C#N)COCc2ccc(C(=O)NCc3cc4nc(-c5cncc(N6CCC6)n5)sc4cn3)cc21` [Compound 353], on BRM, the “BRM Max % Inhibition” value came to 93% and the IC50 was below 0.1 µM. In addition, at BRG-1, the IC50 was in the range of 100 to 500 nM and the Emax is 82%.
The corresponding values for `COc1ncccc1-c1nc2cc(CNC(=O)c3ccc4c(c3)[C@](C)(C#N)COC4)ncc2s1` [Compound 354] are 79%, 0.1 to 0.5 µM, above 1000 nM and 39%.
The corresponding values for `C[C@@]1(C#N)COCc2ccc(C(=O)NCc3cc4nc(-c5cncc(C(F)F)n5)ccc4cn3)cc21` [Compound 355] are 93%, 0.1 to 0.5 µM, 500 to 1000 nM and 74%.
The corresponding values for `C[C@@]1(C#N)COCc2ccc(C(=O)NCc3cc4cc(-c5cncc(N6CCC6)n5)ccc4nn3)cc21` [Compound 356] are 97%, below 0.1 µM, 100 to 500 nM and 95%.
As for `COc1ncccc1-c1ccc2nnc(CNC(=O)c3ccc4c(c3)[C@](C)(C#N)COC4)cc2c1` [Compound 357], on BRM, the “BRM Max % Inhibition” value stood at 97% and the IC50 was below 0.1 µM. Further, at BRG-1, the IC50 lay in the range of 100 to 500 nM and the Emax is 87%.
The corresponding values for `C[C@@]1(C#N)COCc2ccc(C(=O)NCc3cc4nc(-c5ccnc(C(F)F)n5)ccc4cn3)cc21` [Compound 358] are 92%, 0.1 to 0.5 µM, 500 to 1000 nM and 67%.
As to `CN1CC(c2cccc(-c3ccc4cnc(CNC(=O)c5ccc6c(c5)[C@](C)(C#N)COC6)cc4n3)n2)C1` [Compound 359], at BRM, the “BRM Max % Inhibition” value turned out to be 89% and the 50% inhibitory concentration (IC50) fell in the range of 0.1 to 0.5 µM. At BRG-1, the half-inhibitory concentration (IC50) is above 1000 nM and the Emax amounted to 39%.
The corresponding values for `CN(C)c1cccc(-c2ccc3cnc(CNC(=O)c4ccc5c(c4)[C@](C)(C#N)COC5)cc3n2)n1` [Compound 360] are 99%, below 0.1 µM, above 1000 nM and 99%.
The corresponding values for `C[C@@]1(C#N)COCc2ccc(C(=O)NCc3cc4nc(-c5cccc(N6CCCC6)n5)ccc4cn3)cc21` [Compound 361] are 98%, below 0.1 µM, above 1000 nM and 98%.
The corresponding values for `C[C@@H]1CN(c2nccc(-c3ccc4cnc(CNC(=O)c5ccc6c(c5)[C@](C)(C#N)COC6)cc4n3)n2)CCO1` [Compound 362] are 99%, below 0.1 µM, above 1000 nM and 98%.
Consider `C[C@@H]1COCCN1c1nccc(-c2ccc3cnc(CNC(=O)c4ccc5c(c4)[C@](C)(C#N)COC5)cc3n2)n1` [Compound 363], for which, at BRM, the “BRM Max % Inhibition” value was found to be 98% and the IC50 is below 0.1 µM. Further, at BRG-1, the IC50 was 100 to 500 nM and the Emax is 94%.
For `Cn1cc(-c2ccc3cnc(CNC(=O)c4ccc5c(c4)[C@](C)(C#N)COC5)cc3n2)c(F)n1` [Compound 364] the same measures were 90%, 0.1 to 0.5 µM, 500 to 1000 nM and 62%.
In the case of `C[C@@]1(C#N)COCc2ccc(C(=O)NCc3cc4cc(-c5nccc(N6CCC6)n5)ccc4cn3)cc21` [Compound 365], at BRM, the “BRM Max % Inhibition” value is 99% and the concentration for half-maximal inhibition (IC50) is below 0.1 µM. Further, on BRG-1, the IC50 lay within 100 to 500 nM and the Emax came out at 98%.
For `CO[C@@H]1CCN(c2cncc(-c3ccc4cnc(CNC(=O)c5ccc6c(c5)[C@](C)(C#N)COC6)cc4c3)n2)C1` [Compound 366] the same measures were 99%, below 0.1 µM, below 100 nM and 99%.
The corresponding values for `COc1nn(C)cc1-c1ccc2cnc(CNC(=O)c3ccc4c(c3)[C@](C)(C#N)COC4)cc2c1` [Compound 367] are 102%, below 0.1 µM, 100 to 500 nM and 93%.
The corresponding values for `C[C@@]1(F)COCc2ccc(C(=O)NCc3cc4cc(-c5cccc(N6CCC6)n5)ccc4cn3)cc21` [Compound 368] are 103%, below 0.1 µM, 100 to 500 nM and 96%.
Turning to `C[C@@]1(C#N)COCc2ccc(C(=O)NCc3cc4cc(-c5cccc(N6CCC6)n5)ccc4cn3)cc21` [Compound 369], on BRM, the “BRM Max % Inhibition” value was found to be 104% and the concentration for half-maximal inhibition (IC50) is below 0.1 µM. In addition, on BRG-1, the IC50 is below 100 nM and the Emax worked out at 95%.
On to `C[C@@]1(F)COCc2ccc(C(=O)NCc3cc4cc(-c5cncc(N6CCC6)n5)ccc4cn3)cc21` [Compound 370], for which, at BRM, the “BRM Max % Inhibition” value came out at 103% and the half-inhibitory concentration (IC50) was below 0.1 µM. On BRG-1, the half-inhibitory concentration (IC50) lay in the range of 100 to 500 nM and the Emax is 96%.
For `C[C@@]1(C#N)COCc2ccc(C(=O)NCc3cc4cc(-c5cncc(N6CCC6)n5)ccc4cn3)cc21` [Compound 371] the same measures were 104%, below 0.1 µM, below 100 nM and 97%.
The corresponding values for `C[C@@]1(C#N)COCc2ccc(C(=O)NCc3cc4cc(-c5nccc(N6CCC6)n5)cnc4cn3)cc21` [Compound 372] are 93%, 0.1 to 0.5 µM, above 1000 nM and 47%.
On to `C[C@@]1(C#N)COCc2ccc(C(=O)NCc3cc4nc(-c5cccc(N6CCOCC6)n5)ccc4cn3)cc21` [Compound 373], for which, on BRM, the “BRM Max % Inhibition” value turned out to be 103% and the 50% inhibitory concentration (IC50) was below 0.1 µM. At BRG-1, the half-inhibitory concentration (IC50) is below 100 nM and the Emax was found to be 100%.
The corresponding values for `C[C@@]1(C#N)COCc2ccc(C(=O)NCc3cc4nc(-c5cncc(N6CC(F)C6)n5)ccc4cn3)cc21` [Compound 374] are 101%, below 0.1 µM, 100 to 500 nM and 94%.
